Experimental data as given in patent publication US4559326A, “Antiinflammatory compositions and methods” (Pfizer Inc., priority 1985, dated 1985).
Structures can show the parent of a compound that is named as a salt.

Test system: Gastric lesions induced by the ethanolamine salt of piroxicam
Experiment: Protective effect of inositol on piroxicam-induced gastric lesions in rats
Type: in vivo, rat (CD strain, Sprague-Dawley)
Conditions: for Significance p < 0.05: two-tailed Student's t-test; for Lesions/Rat (X +/- SE): mean (SE)
Experimental: Adult male "specific pathogen free" rats weighing 140-160 grams of the CD strain (Sprague-Dawley) were obtained from Charles River Breeding Laboratories (Kingston, N.Y.). The animals were acclimated for approximately one week and tested when they reached a body weight of 200-225 grams. The rats were fasted for 16 hours and randomized into groups consisting of 8 to 20 animals which were normalized with regard to their average body weight.
Gastric ulcers were induced in the animals by orally dosing them with a single 120 mg/kg dose of piroxicam (ethanolamine salt) in 2 ml. of aqueous 0.1% methylcellulose (pH=6.8). Those animals receiving a second medicinal agent separately received the second drug in an additional 2 ml. of the same medium at about the same time. Six and one-half hours later, the animals were sacrificed by cervical dislocation and autopsied. The stomachs were surgically removed, dissected along the greater curvature and rinsed with cold water. The stomachs were individually scored for both linear and punctate lesions. The total number of lesions was used for scoring purposes. The data obtained from each group of rats were analyzed after calculation of the mean number +/- the standard error of total gastric lesions. The values obtained were also compared to the controls which received only piroxicam by the two-tailed Student's T-Test for nonpaired data.

| SMILES | ED50 (Rattus norvegicus, 6.5 h, oral, linear regression analysis, lesions induced by 120 mg/kg piroxicam ethanolamine salt, read-out: ED50 (dose of inositol required to inhibit 50% of control gastric lesion)) | Reduction of piroxicam-induced gastric lesions (healthy fasted rat, statement in words) | Significance p < 0.05 (inositol 10 mg/kg oral vs piroxicam-only control) | Lesions/Rat (X +/- SE) (inositol 10 mg/kg oral, with 120 mg/kg oral piroxicam ethanolamine salt, fasted male rats, 6.5 h, 40 rats) | Significance p < 0.05 (inositol 33 mg/kg oral vs piroxicam-only control) | Lesions/Rat (X +/- SE) (inositol 33 mg/kg oral, with 120 mg/kg oral piroxicam ethanolamine salt, fasted male rats, 6.5 h, 40 rats) | Significance p < 0.05 (inositol 100 mg/kg oral vs piroxicam-only control) | Lesions/Rat (X +/- SE) (inositol 100 mg/kg oral, with 120 mg/kg oral piroxicam ethanolamine salt, fasted male rats, 6.5 h, 40 rats) | Significance p < 0.05 (inositol 333 mg/kg oral vs piroxicam-only control) | Lesions/Rat (X +/- SE) (inositol 333 mg/kg oral, with 120 mg/kg oral piroxicam ethanolamine salt, fasted male rats, 6.5 h, 40 rats) | Lesions/Rat (X +/- SE) (control: 120 mg/kg oral piroxicam ethanolamine salt alone, inositol 0 mg/kg, 6.5 h, 30 rats) |
| --- | --- | --- | --- | --- | --- | --- | --- | --- | --- | --- | --- |
| O[C@H]1[C@H](O)[C@@H](O)[C@H](O)[C@@H](O)[C@H]1O [Inositol, cis-1,2,3,4-trans-4,6-cyclohexanehexol] | 85 mg/kg | significantly reduces | + (p < 0.05) | 4.7 (0.9) Lesions/Rat | + (p < 0.05) | 5.2 (0.7) Lesions/Rat | + (p < 0.05) | 3.6 (0.6) Lesions/Rat | + (p < 0.05) | 3.0 (0.8) Lesions/Rat | – |
| CN1C(C(=O)Nc2ccccn2)=C(O)c2ccccc2S1(=O)=O [ethanolamine salt of piroxicam] | – | – | – | – | – | – | – | – | – | – | 7.5 (0.8) Lesions/Rat |
